Holding throughout (format): biochemical
For one assay, the target named is T1, hMeprin β (Homo sapiens, UniProt Q16820).
T1 sequence (Q16820 62-701): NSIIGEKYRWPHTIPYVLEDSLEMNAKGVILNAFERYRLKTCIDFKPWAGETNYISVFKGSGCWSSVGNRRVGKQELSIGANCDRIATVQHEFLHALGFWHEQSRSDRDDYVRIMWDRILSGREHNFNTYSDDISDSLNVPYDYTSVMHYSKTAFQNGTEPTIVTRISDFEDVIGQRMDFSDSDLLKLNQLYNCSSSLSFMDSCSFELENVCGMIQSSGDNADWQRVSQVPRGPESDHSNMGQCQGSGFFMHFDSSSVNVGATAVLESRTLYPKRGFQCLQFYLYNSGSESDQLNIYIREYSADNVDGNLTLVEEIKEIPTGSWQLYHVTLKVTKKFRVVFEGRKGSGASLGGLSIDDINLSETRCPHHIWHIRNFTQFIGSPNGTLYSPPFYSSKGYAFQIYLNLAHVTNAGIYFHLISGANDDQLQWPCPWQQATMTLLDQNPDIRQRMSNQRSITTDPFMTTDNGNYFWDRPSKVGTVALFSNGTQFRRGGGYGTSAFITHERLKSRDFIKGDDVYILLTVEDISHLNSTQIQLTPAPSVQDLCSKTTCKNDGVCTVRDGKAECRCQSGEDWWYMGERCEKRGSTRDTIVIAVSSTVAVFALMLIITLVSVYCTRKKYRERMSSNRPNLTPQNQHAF
In words: Enzymatic assay, quenched peptide substrate cleavage, method B. Particulars: geometric mean (geometric SD factor in parentheses); for Ki: Morrison's equation, read-out: Meprin beta Ki(app); for IC50: read-out: Meprin beta IC50. An outline of the steps:
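Cleavage of internally quenched peptides was read at 340/420 nm and 30° C., with enzyme at 5e-8 to 2e-10 M and substrate at 0.15–80 μM. Inhibitor solutions contained 1% DMSO and substrate 0.5% DMSO. Method B gave Ki(app) values via Morrison's equation, with kinetics measured in at least duplicate on separate days.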

In another assay the target is T2, hMMP 13 (Homo sapiens, UniProt P45452).
T2 construct: purchased R&D systems
In words: Residual enzyme activity of other metalloproteases. Particulars: read-out: Residual enzyme activity MMP13; for remaining activity at 10 µM: 10 μM inhibitor; for remaining activity at 200 µM: 200 μM inhibitor. As to the method:
(§1) A typical assay of 250 μl total volume measured in black 96 well plates consisted of 100 μl buffer, 50 μl enzyme at a final concentration of 5e-8 M to 2e-10 M, 50 μl substrate (0.15 to 80 μM, in buffer, 0.5% DMSO) and 50 μl inhibitor solution (in buffer, 1% DMSO). In case of 125 μl assay volume (black 96 half area well plates) all volumes were cut in half. Enzymatic activity of ADAMs was measured in 384 well plates with 60 μl total assay volume consisting of 20 μl inhibitor, 20 μl buffer, 10 μl enzyme and 10 μl substrate.
(§2) MMPs were activated prior to measurement by APMA (p-aminophenylmercuric acetate) treatment according to manufacturer's instructions (R&D systems).

The next assay concerns the target T3, hMMP 2 (Homo sapiens, UniProt P08253).
T3 construct: purchased Abnova
T3 sequence (P08253 110-660): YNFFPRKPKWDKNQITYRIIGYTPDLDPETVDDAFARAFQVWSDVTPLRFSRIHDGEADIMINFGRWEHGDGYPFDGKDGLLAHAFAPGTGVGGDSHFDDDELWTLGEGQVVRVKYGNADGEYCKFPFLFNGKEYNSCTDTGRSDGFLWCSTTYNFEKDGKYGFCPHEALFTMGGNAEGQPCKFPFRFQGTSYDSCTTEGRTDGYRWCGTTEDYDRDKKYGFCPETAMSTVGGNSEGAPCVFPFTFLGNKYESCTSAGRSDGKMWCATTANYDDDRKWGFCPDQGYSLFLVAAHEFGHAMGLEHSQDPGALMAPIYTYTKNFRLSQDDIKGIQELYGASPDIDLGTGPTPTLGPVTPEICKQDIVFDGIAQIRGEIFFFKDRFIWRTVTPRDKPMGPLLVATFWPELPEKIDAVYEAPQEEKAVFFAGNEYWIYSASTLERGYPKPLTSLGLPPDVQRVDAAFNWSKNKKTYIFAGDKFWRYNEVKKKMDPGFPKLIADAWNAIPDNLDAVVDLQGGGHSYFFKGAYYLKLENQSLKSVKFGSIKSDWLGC
As to the kind of experiment: Residual enzyme activity of other metalloproteases. Particulars: read-out: Residual enzyme activity MMP2; for remaining activity at 10 µM: 10 μM inhibitor; for remaining activity at 200 µM: 200 μM inhibitor. How it is done: as §1, §2

For another assay, the target named is T4, hMMP 9 (Homo sapiens, UniProt P14780).
T4 construct: purchased R&D systems
In words: Residual enzyme activity of other metalloproteases. The settings on record: read-out: Residual enzyme activity MMP9; for remaining activity at 10 µM: 10 μM inhibitor; for remaining activity at 200 µM: 200 μM inhibitor. How it is done:
as §1, with “The determination of enzymatic activity was based on the cleavage of internally quenched peptide substrates. A typical” for “A typical”
as §2

Another assay deals with T5, hADAM 10 (Homo sapiens, UniProt O14672).
T5 construct: purchased R&D systems
T5 sequence (O14672 214-748): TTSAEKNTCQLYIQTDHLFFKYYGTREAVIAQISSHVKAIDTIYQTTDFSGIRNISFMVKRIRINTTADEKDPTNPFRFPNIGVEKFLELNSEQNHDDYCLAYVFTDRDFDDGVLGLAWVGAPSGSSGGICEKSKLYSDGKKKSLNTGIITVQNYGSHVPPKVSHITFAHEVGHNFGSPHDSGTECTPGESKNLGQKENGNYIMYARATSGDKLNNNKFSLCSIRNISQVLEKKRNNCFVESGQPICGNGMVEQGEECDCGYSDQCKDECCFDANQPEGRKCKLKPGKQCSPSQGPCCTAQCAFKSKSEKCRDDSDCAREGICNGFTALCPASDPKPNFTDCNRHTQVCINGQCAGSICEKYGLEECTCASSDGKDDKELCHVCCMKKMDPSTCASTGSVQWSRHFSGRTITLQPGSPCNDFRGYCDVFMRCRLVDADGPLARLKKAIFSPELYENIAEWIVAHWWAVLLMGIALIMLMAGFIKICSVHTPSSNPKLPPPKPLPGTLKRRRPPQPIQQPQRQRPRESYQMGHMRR
As to the kind of experiment: Residual enzyme activity of other metalloproteases. The settings on record: read-out: Residual enzyme activity ADAM10; for remaining activity at 10 µM: 10 μM inhibitor; for remaining activity at 200 µM: 200 μM inhibitor. How it is done:
as §1, with “The determination of enzymatic activity was based on the cleavage of internally quenched peptide substrates. A typical” for “A typical”

A further assay deals with T6, hADAM 17 (Homo sapiens, UniProt P78536).
T6 construct: purchased R&D systems
In words: Residual enzyme activity of other metalloproteases. The settings on record: read-out: Residual enzyme activity ADAM17; for remaining activity at 10 µM: 10 μM inhibitor; for remaining activity at 200 µM: 200 μM inhibitor. As to the method: as §1, with “The determination of enzymatic activity was based on the cleavage of internally quenched peptide substrates. A typical” for “A typical”

T6 sequence (P78536 215-824): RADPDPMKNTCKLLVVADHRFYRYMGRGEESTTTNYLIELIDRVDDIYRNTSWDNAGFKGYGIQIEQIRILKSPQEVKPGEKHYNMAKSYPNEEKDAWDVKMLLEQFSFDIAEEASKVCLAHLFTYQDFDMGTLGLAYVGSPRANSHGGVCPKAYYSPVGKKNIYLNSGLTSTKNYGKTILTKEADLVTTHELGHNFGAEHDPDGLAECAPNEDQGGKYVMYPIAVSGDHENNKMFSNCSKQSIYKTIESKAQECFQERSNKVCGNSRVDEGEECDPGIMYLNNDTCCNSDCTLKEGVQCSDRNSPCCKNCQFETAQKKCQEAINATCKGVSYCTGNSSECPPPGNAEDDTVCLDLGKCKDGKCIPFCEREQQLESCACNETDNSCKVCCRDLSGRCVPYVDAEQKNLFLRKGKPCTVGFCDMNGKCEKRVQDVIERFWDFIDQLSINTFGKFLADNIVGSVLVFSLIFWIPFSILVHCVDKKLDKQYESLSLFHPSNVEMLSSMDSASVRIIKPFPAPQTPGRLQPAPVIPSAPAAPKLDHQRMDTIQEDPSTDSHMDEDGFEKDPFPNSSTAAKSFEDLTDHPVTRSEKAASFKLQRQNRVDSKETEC
T4 sequence (P14780 107-707 limits assumed): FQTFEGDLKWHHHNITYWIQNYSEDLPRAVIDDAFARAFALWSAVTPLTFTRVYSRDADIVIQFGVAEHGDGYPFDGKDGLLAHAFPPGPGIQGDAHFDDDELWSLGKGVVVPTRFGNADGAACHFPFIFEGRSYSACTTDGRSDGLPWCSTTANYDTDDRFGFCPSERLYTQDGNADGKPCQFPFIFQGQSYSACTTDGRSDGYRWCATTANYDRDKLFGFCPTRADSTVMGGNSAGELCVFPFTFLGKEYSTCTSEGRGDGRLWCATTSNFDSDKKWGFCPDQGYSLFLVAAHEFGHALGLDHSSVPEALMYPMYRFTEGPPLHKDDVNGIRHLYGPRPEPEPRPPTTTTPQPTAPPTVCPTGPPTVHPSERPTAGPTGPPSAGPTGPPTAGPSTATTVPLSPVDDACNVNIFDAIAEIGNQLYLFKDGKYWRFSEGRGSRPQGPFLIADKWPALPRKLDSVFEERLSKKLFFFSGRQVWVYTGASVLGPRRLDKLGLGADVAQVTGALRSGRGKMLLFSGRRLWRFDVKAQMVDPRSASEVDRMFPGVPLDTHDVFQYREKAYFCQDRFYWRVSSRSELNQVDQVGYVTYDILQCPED

Consider `O=C(Cc1c(-c2ccccc2)nn(Cc2ccc3c(c2)OCO3)c1-c1ccccc1)NO` [Example 43, 2-[1-(1,3-Benzodioxol-5-ylmethyl)-3,5-diphenyl-1H-pyrazol-4-yl]ethanehydroxamic acid], for which, on hMeprin β, the Ki turned out to be 305 nM. Besides, the IC50 at hMeprin β is 310 nM. Also, the remaining activity at 10 µM stood at 78% at hMMP 13; 77% at hMMP 2; 74% at hMMP 9; 69% at hADAM 10; 21% on hADAM 17. In addition, the remaining activity at 200 µM was 51% on hMMP 13; 60% on hMMP 2; 60% at hMMP 9; 39% on hADAM 10; 4% on hADAM 17.
Regarding `O=C(Cn1c(-c2ccccc2)nc2ccccc21)NO` [Example 13, 2-(2-Phenylbenzimidazol-1-yl)ethanehydroxamic acid], at hMeprin β, the Ki was 1130 nM. Further, the IC50 on hMeprin β stood at 1140 nM. Besides, the remaining activity at 10 µM at hMMP 13 was determined as 102%; at hMMP 2 it was 89%; at hMMP 9 it was 96%; at hADAM 10, 87%; at hADAM 17, 92%. Further, the remaining activity at 200 µM at hMMP 13 was 72%; on hMMP 2, 46%; on hMMP 9, 68%; on hADAM 10, 76%; on hADAM 17, 56%.
With `O=C(Cc1c(-c2ccc3c(c2)OCO3)n[nH]c1-c1ccccc1)NO` [Example 50, 2-[3-(1,3-Benzodioxol-5-yl)-5-phenyl-1H-pyrazol-4-yl]ethanehydroxamic acid], at hMeprin β, the Ki amounted to 109 nM. The IC50 at hMeprin β is 118 nM. Besides, the remaining activity at 10 µM on hMMP 13 amounted to 71%; on hMMP 2, 41%; on hMMP 9, 72%; at hADAM 10 it was 59%; on hADAM 17, 51%. Moreover, the remaining activity at 200 µM on hMMP 13 worked out at 10%; at hMMP 2 it was 8%; at hMMP 9, 16%; at hADAM 10, 5%; on hADAM 17, 5%.
In the case of `O=C(Cc1c(-c2cccc(C(=O)O)c2)n[nH]c1-c1ccc(Cl)c(O)c1F)NO` [Example 63, 3-[5-(4-Chloro-2-fluoro-3-hydroxy-phenyl)-4-[2-(hydroxyamino)-2-oxo-ethyl]-1H-pyrazol-3-yl]benzoic acid], on hMeprin β, the Ki was determined as 4 nM. Besides, on hMeprin β, the half-maximal inhibitory concentration (IC50) was determined as 4 nM. The remaining activity at 10 µM on hMMP 13 was determined as 105%; at hMMP 2 it was 95%; on hMMP 9 it was 94%; at hADAM 10 it was 90%; on hADAM 17 it was 99%. The remaining activity at 200 µM at hMMP 13 turned out to be 73%; at hMMP 2, 81%; at hMMP 9 it was 71%; on hADAM 10 it was 74%; at hADAM 17, 91%.
With `O=C(Cc1c(-c2ccccc2)noc1-c1ccccc1)NO` [Example 2, 2-(3,5-Diphenylisoxazol-4-yl)ethanehydroxamic acid], the Ki on hMeprin β was determined as 584 nM. The half-maximal inhibitory concentration (IC50) at hMeprin β was found to be 586 nM. The remaining activity at 10 µM was 80% on hMMP 13; 87% at hMMP 2; 86% at hMMP 9; 80% on hADAM 10; 62% on hADAM 17. Besides, the remaining activity at 200 µM at hMMP 13 came out at 31%; at hMMP 2, 34%; on hMMP 9, 16%; at hADAM 10 it was 22%; on hADAM 17, 9%.
On to `O=C(Cc1c(-c2ccccc2)nn(Cc2ccc(Cl)c(O)c2F)c1-c1ccccc1)NO` [Example 42, 2-[1-(4-Chloro-2-fluoro-3-hydroxybenzyl)-3,5-diphenyl-1H-pyrazol-4-yl]ethanehydroxamic acid], for which the Ki at hMeprin β amounted to 9 nM. Further, the IC50 on hMeprin β was found to be 10 nM. Moreover, the remaining activity at 10 µM amounted to 84% on hMMP 13; 69% at hMMP 2; 70% on hMMP 9; 85% at hADAM 10; 72% at hADAM 17. In addition, the remaining activity at 200 µM on hMMP 13 stood at 9%; on hMMP 2 it was 18%; at hMMP 9, 14%; on hADAM 10 it was 34%; at hADAM 17, 14%.
`COc1cccc(-c2n[nH]c(-c3ccccc3)c2CC(=O)NO)c1` [Example 47, 2-[3-(3-Methoxyphenyl)-5-phenyl-1H-pyrazol-4-yl]ethanehydroxamic acid]: at hMeprin β, the Ki was 116 nM. Further, the 50% inhibitory concentration (IC50) at hMeprin β came out at 123 nM. The remaining activity at 10 µM at hMMP 13 is 85%; at hMMP 2 it was 78%; at hMMP 9 it was 80%; on hADAM 10, 68%; at hADAM 17, 52%. Also, the remaining activity at 200 µM on hMMP 13 stood at 28%; on hMMP 2 it was 17%; at hMMP 9, 33%; on hADAM 10, 8%; at hADAM 17 it was 6%.
